Experimental data taken from PMC4420714 (Peptides, 2015).
Read-outs that look alike come from different tables or passages of the source.

Legend:
[1] = target: T1, PAC1-R (Homo sapiens, UniProt P41586); test: Binding of 125I-PACAP27 to PAC1-R stably transfected NIH 3T3 cells
T1 sequence (P41586 21-468): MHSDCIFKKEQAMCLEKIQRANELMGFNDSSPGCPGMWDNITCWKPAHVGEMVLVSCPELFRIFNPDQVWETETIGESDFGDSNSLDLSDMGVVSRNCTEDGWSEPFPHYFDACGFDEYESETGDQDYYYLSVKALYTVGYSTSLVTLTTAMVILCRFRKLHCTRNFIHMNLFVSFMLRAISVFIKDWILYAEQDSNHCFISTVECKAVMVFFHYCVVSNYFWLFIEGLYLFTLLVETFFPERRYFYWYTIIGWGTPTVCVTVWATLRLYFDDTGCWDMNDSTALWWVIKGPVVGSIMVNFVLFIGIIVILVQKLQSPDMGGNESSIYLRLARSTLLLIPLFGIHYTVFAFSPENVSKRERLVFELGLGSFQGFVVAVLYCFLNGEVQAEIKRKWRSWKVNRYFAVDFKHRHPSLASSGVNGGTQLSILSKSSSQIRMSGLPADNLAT

[2] = target: T2, VPAC1-R (Homo sapiens, UniProt P32241); test: Binding of 125I-VIP to VPAC1-R/PANC-1 cells
T2 sequence (P32241 31-457): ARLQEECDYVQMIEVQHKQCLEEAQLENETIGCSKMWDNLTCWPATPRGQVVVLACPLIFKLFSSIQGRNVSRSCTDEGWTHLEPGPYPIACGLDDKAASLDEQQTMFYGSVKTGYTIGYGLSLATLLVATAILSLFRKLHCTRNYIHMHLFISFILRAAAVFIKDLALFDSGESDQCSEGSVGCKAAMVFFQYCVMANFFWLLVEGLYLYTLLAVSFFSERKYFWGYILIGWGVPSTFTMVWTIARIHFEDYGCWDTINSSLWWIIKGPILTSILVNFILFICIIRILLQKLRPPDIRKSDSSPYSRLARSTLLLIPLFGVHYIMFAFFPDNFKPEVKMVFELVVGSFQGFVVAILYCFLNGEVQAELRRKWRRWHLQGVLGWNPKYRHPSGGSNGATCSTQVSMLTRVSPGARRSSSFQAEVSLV

[3] = target: T1, PAC1-R; test: [3H]cAMP generation in PAC1-R cells; format: cell-based
[4] = target: T2, VPAC1-R; test: [3H]cAMP generation in VPAC1-R/PANC-1 cells; format: cell-based
[5] = target: T3, VPAC2-R (Homo sapiens, UniProt P41587); test: [3H]cAMP generation in VPAC2-R/PANC-1 cells; format: cell-based; settings: for maximal increase in cAMP, VPAC2-R/PANC-1 cells: over control
T3 sequence (P41587 24-438): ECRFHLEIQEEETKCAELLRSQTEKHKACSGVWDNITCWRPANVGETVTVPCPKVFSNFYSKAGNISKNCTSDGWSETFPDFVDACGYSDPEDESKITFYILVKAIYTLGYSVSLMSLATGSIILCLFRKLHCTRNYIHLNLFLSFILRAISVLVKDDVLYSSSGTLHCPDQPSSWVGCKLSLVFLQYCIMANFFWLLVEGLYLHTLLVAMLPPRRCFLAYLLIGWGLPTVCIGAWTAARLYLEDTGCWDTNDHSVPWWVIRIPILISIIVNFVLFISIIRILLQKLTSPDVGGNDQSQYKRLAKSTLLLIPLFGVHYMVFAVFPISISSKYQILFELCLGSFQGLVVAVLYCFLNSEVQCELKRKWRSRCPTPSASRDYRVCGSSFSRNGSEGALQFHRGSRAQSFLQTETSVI

[6] = target: T1, PAC1-R; test: [3H]Inositol phosphate generation; format: cell-based; settings: PAC1-R cells, IP EC50/cAMP EC50
[7] = target: T3, VPAC2-R; test: Binding of 125I-PACAP27 to VPAC2-R/PANC-1 cells; settings: ratio of binding IC50, analog vs native parent peptide
[8] = target: T2, VPAC1-R; test: [3H]cAMP generation in T47D cells; format: cell-based; settings: for [3H]cAMP T47D % max (agonist class): relative to PACAP38, up to 1 µM
[9] = target: T1, PAC1-R; settings: PAC1-R over VPAC1-R; ref [13]; cited from earlier work
[10] = ratio of binding IC50, analog vs native parent peptide

Substance	decrease in affinity for PAC1-R cells compared to native PACAP38 (or PACAP27) [1]	lower affinity for PAC1-R cells than VPAC1-R/PANC-1 cells [1]	maximal increase in cAMP, PAC1-R cells [3] [fold]	coupling ratio (IC50-binding affinity/EC50-cAMP generation), VPAC1-R/PANC-1 cells [4] [fold]	maximal increase in cAMP, VPAC2-R/PANC-1 cells [5] [fold]	lower affinity for PAC1-R cells than VPAC2-R/PANC-1 cells [1]	decrease in affinity for VPAC1-R/PANC-1 cells compared to native PACAP38 (or PACAP27, VIP) [2, 10]	decrease in affinity for VPAC2-R/PANC-1 cells compared to native PACAP38 (or PACAP27, VIP) [7]	higher potency for PAC1-R cells compared to VPAC1-R/PANC-1 cells [3]	higher potency for PAC1-R cells compared to VPAC2-R/PANC-1 cells [3]	[3H]cAMP T47D % max (agonist class) [8]	further results
PACAP27 [reference compound]	10 fold	12 fold	4.1 ± 1.5	1.2	6.5 ± 2.0							higher affinity (selectivity) for PAC1-R cells over VPAC2-R/PANC-1 cells [1]: 2 fold; higher affinity than PACAP38 for VPAC1-R/PANC-1 cells ([2]; binding IC50 ratio): 6 fold; coupling ratio (IC50-binding affinity/EC50-cAMP generation), PAC1-R cells [3]: 94 fold; maximal increase in cAMP, VPAC1-R/PANC-1 cells ([4]; over control): 5.0 ± 0.7 fold; coupling ratio (IC50-binding affinity/EC50-cAMP generation), VPAC2-R/PANC-1 cells [5]: 4.8 fold
PACAP38 [reference compound]			4.1 ± 1.5	2.5	6.5 ± 2.0							maximal increase in cAMP, VPAC1-R/PANC-1 cells [4]: 5.0 ± 0.7 fold; less potent at stimulating [3H]IP (PLC) than cAMP [6]: 19 fold
[Aib^2]PACAP38 [Peptide P15]	11–30 fold					2–9 fold						
[D-Ser^2]PACAP27 [Peptide P4]	15–25 fold	6–10 fold				2–9 fold	37 fold	7 fold	2-to-5 fold	12–140 fold	pAg (90)	[3H]cAMP T47D % max of partial agonist ([8]; partial agonist maximum): pAg (90) % max; PAC1-selectivity reported in a previous study [9]: 3 fold
[D-Ser^2]PACAP38 [Peptide P16]	11–30 fold							15–500 fold	2-to-5 fold	12–140 fold		decrease in affinity for VPAC1-R/PANC-1 cells compared to native PACAP38 (or PACAP27, VIP) [2]: 100–500 fold
[Me-Lys^15]PACAP27 [Peptide P2]							100–500 fold	6–132 fold			No Act	[3H]cAMP VPAC1-R/PANC-1 % max (agonist class) ([4]; VPAC1-R/PANC-1 cells, relative to PACAP38, up to 1 µM): Ag (1 µM, 68); [3H]cAMP VPAC2-R/PANC-1 % max (agonist class) ([5]; VPAC2-R/PANC-1 cells, relative to PACAP38, up to 1 µM): Ag (1 µM, 19)
